Laboratory results published in US10669267B2, “Substituted N-[2-(4-phenoxypiperidin-1-yl)-2-(1,3-thiazol-5-yl)ethyl]benzamide and N-[2-(4-benzyloxypiperidin-1-yl)-2-(1,3-thiazol-5-yl)ethyl]benzamide derivatives P2X7 receptor antagonists” (Axxam S.P.A., priority 2016, dated 2020).
Like-named read-outs stand apart in the source and are kept apart here.

Key:
[1] = target: rat P2X7R (Rattus norvegicus (Rat), UniProt Q64663); assay: rat P2X7 Ca2+ influx, Screen Quest Fluo-8 No Wash Calcium Assay Kit (FLIPR TETRA); assay type: cell-based; details: read-out: rP2X7 (IC50; nM)
Procedure: Ca^2+ influx was measured in HEK-293 cells stably transfected with the receptor using Screen Quest™ Fluo-8 No Wash Calcium Assay Kit (AAt Bioquest®). Briefly, once inside the cells, the lipophilic blocking groups of Fluo-8 are cleaved by non-specific cell esterases, resulting in a negatively-charged fluorescent-dye that stays inside cells. Its fluorescence increases upon binding to calcium. When HEK-293/P2X7 cells were stimulated with BzATP, Ca^2+ entered the cells and the fluorescence of Fluo-8 NW increaseed.
To routinely test the compounds, HEK-293 cells stably transfected with rat P2X7R were seeded overnight in growth medium at 10000, 15000 or 20000 cells/well in 384-well plate, according to the level of response after thawing. 24 hours later, the medium was removed and the cells were pre-loaded at RT for 1 hour with 20 μL/w of Fluo-8 NW prepared in Tyrode 0.3 mM Ca^2+/Mg^2+-free.
Compounds were tested at […] according to the following method: • first injection at […] of 10 μL of 3× test compound (in Tyrode's buffer 0.3 mM Ca^2+/Mg^2+-free+DMSO 0.5% final concentration) • 5′ incubation • second injection at […] of 15 µL of 3× BzATP at ˜ECK) (in Tyrode's buffer 0.3 mM Ca^2+/Mg^2+-free+BSA 0.0003% final concentration) • Fluorescence recording for 3′
Between one plate and the following, tips were extensively washed with water, then with 100% DMSO and finally with water to avoid carry-over inside the tips.
The effect of the test compounds was measured as percent inhibition vs a reference antagonist and IC50 values were calculated accordingly.

[2] = target: human P2X7 channel (Homo sapiens (Human), UniProt Q99572); assay: human P2X7 channel assay by automated patch-clamp (QPatch16X), BzATP-evoked current; assay type: cell-based; details: HEK-293 cells expressing P2X7, whole-cell voltage clamp, 100 microM BzATP, holding -80 mV; read-out: hP2X7 (IC50; nM)
Procedure: In order to directly monitor the block of P2X7 channel, an electrophysiological assay was developed and implemented on the QPatch16X automated electrophysiology instrument.
HEK-293 cells expressing the P2X7 channels were cultured in modified EMEM.
72 hours before experiment, 5 million cells were seeded onto T225 flasks. Just before the experiment cells were washed twice, detached from the flask with trypsin-EDTA, re-suspended in the suspension solution and placed on the QPatch 16x.
The compounds (20 mM in a 100% DMSO) stored at −20° C. were prepared the day of the experiment (a first dilution 1:20 in 100% DMSO to prepare a 1 mM stock solution, then a 1 microM solution in external solution+a serial dilution 1:10).
The standard whole-cell voltage clamp experiments were performed at room temperature. For these experiments the multihole technology was used and the data were sampled at 2 KHz.
After establishment of the seal and the passage in the whole cell configuration, the cells were held at −80 mV. The P2XR7 current was evoked by applying 100 microM of BzATP alone (4 times) and then in the presence increasing concentrations of the compound under investigation (1, 10, 100 and 1000 nM).
The pre-incubation periods 5 to 8 contain increasing concentrations of the compound of interest (1, 10, 100 and 1000 nM), as illustrated in FIGURE.
The maximal inward current evoked by BzATP in absence or presence of increasing concentrations of the compounds under investigation was measured and normalized.
Y: normalized response, 100% down to 0%, decreasing as X increases.
LogIC50: same log units as X
HillSlope: slope factor or HS, unitless

[3] = Table 4, HEK-293 cells stably transfected with rat P2X7R, BzATP stimulation
[4] = Table 5, comparison with Compound 59 of WO2015118019

Sequence of rat P2X7R (Q64663 whole entry): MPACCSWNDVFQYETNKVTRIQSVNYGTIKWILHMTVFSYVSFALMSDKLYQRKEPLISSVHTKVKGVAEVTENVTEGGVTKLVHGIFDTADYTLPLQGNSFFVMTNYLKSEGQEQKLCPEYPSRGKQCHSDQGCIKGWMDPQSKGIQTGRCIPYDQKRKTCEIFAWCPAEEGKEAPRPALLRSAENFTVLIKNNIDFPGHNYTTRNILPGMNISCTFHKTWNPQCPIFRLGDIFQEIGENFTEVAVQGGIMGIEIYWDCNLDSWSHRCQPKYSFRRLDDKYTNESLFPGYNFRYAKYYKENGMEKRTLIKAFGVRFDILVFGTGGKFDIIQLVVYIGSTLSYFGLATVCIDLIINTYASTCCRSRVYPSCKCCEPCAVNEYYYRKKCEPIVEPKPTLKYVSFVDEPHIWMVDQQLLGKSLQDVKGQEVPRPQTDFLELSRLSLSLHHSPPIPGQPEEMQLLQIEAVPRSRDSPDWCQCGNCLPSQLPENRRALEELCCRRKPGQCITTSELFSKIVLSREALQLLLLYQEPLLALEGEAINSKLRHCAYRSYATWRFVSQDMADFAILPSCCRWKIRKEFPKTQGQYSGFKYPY
Sequence of human P2X7 channel (Q99572 whole entry): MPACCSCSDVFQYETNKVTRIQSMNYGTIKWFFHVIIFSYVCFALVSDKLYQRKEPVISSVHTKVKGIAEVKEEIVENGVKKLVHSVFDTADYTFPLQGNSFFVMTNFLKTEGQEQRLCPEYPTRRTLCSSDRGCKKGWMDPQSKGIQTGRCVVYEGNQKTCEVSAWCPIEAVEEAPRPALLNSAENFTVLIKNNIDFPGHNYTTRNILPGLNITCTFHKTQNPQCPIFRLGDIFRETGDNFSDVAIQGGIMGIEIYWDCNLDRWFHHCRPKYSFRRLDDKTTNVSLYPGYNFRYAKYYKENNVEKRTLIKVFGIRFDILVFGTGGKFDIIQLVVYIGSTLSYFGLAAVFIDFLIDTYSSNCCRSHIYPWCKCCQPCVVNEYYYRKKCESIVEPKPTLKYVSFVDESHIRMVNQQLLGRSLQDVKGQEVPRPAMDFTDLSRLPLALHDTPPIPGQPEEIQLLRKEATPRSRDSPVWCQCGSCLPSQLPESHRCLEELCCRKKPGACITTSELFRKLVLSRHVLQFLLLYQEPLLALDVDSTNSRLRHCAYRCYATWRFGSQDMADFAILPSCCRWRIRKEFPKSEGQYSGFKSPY

Row | Structure (SMILES) | IC50 [1, 3] [nM] | IC50 [1, 4] [nM] | IC50 [2] [nM]
1 | Cc1ncsc1C(CNC(=O)c1c(F)cccc1Cl)N1CCC(OCc2cccc(F)c2)CC1 (stereo not drawn) [Compound 3, 2-chloro-6-fluoro-N-(2-{4-[(3-fluorophenyl)methoxy]piperidin-1-yl}-2-(4-methyl-1,3-thiazol-5-yl)ethyl)benzamide] | 373 |  | 5.95
2 | O=C(NCC(c1scnc1C(F)F)N1CCC(OCc2ccccc2F)CC1)c1c(F)cccc1Cl (stereo not drawn) [Compound 25, 2-chloro-N-{2-[4-(difluoromethyl)-1,3-thiazol-5-yl]-2-{4-[(2-fluorophenyl)methoxy]piperidin-1-yl}ethyl}-6-fluorobenzamide] | 252 |  | 
3 | Cc1ncsc1C(CNC(=O)c1c(F)cccc1Cl)N1CCC(Oc2ccc(Cl)cc2)CC1 (stereo not drawn) [Compound 8, 2-chloro-N-{2-[4-(4-chlorophenoxy)piperidin-1-yl]-2-(4-methyl-1,3-thiazol-5-yl)ethyl}-6-fluorobenzamide] | 1310 |  | 
4 | Cc1ncsc1C(CNC(=O)c1c(F)cccc1Cl)N1CCC(OCc2ccc(Cl)cc2)CC1 (stereo not drawn) [Compound 2, 2-chloro-N-(2-{4-[(4-chlorophenyl)methoxy]piperidin-1-yl}-2-(4-methyl-1,3-thiazol-5-yl)ethyl)-6-fluorobenzamide] | 971 |  | 
5 | O=C(NCC(c1scnc1C(F)F)N1CCC(OCc2cc(F)cc(F)c2)CC1)c1c(F)cccc1Cl (stereo not drawn) [Compound 26, 2-chloro-N-{2-[4-(difluoromethyl)-1,3-thiazol-5-yl]-2-{4-[(3,5-difluorophenyl)methoxy]piperidin-1-yl}ethyl}-6-fluorobenzamide] | 578 |  | 
6 | Cc1ncsc1C(CNC(=O)c1c(F)cccc1Cl)N1CCC(OCc2ccccc2F)CC1 (stereo not drawn) [Compound 4, 2-chloro-6-fluoro-N-(2-{4-[(2-fluorophenyl)methoxy]piperidin-1-yl}-2-(4-methyl-1,3-thiazol-5-yl)ethyl)benzamide] | 953 |  | 28.1
7 | Cc1ncsc1C(CNC(=O)c1c(F)cccc1Cl)N1CCC(Oc2cccc(F)c2)CC1 (stereo not drawn) [Compound 9, 2-chloro-6-fluoro-N-{2-[4-(3-fluorophenoxy)piperidin-1-yl]-2-(4-methyl-1,3-thiazol-5-yl)ethyl}benzamide] | 402 |  | 23.6
8 | O=C(NCC(c1scnc1C(F)F)N1CCC(Oc2cc(F)cc(F)c2)CC1)c1c(F)cccc1Cl (stereo not drawn) [Compound 31, 2-chloro-N-{2-[4-(difluoromethyl)-1,3-thiazol-5-yl]-2-[4-(3,5-difluorophenoxy)piperidin-1-yl]ethyl}-6-fluorobenzamide] | 458 |  | 
9 | O=C(NCC(c1scnc1C(F)F)N1CCC(Oc2ccc(Cl)cc2)CC1)c1c(F)cccc1Cl (stereo not drawn) [Compound 28, 2-chloro-N-{2-[4-(4-chlorophenoxy)piperidin-1-yl]-2-[4-(difluoromethyl)-1,3-thiazol-5-yl]ethyl}-6-fluorobenzamide] | 2020 |  | 
10 | O=C(NCC(c1scnc1C(F)F)N1CCC(Oc2ccccc2F)CC1)c1cccc2ncccc12 (stereo not drawn) [Compound 37, N-{2-[4-(difluoromethyl)-1,3-thiazol-5-yl]-2-[4-(2-fluorophenoxy)piperidin-1-yl]ethyl}quinoline-5-carboxamide] | 133 | 133 | 43.2
11 | Cc1ncsc1C(CNC(=O)c1c(F)cccc1Cl)N1CCC(Oc2ccccc2F)CC1 (stereo not drawn) [Compound 10, 2-chloro-6-fluoro-N-{2-[4-(2-fluorophenoxy)piperidin-1-yl]-2-(4-methyl-1,3-thiazol-5-yl)ethyl}benzamide] | 583 |  | 42.9
12 | O=C(NCC(c1scnc1C(F)F)N1CCC(OCc2ccc(F)c(F)c2)CC1)c1c(F)cccc1Cl (stereo not drawn) [Compound 27, 2-chloro-N-{2[4-(difluoromethyl)-1,3-thiazol-5-yl]-2-{4-[(3,4-difluorophenyl)methoxy]piperidin-1-yl}ethyl}-6-fluorobenzamide] | 1210 |  | 
13 | O=C(NCC(c1scnc1C(F)F)N1CCC(OCc2ccccc2F)CC1)c1cccc2ncccc12 (stereo not drawn) [Compound 32, N-{2-[4-(difluoromethyl)-1,3-thiazol-5-yl]-2-{4-[(2-fluorophenyl)methoxy]piperidin-1-yl}ethyl}quinoline-5-carboxamide] | 251 |  | 
14 | Cc1ncsc1C(CNC(=O)c1c(F)cccc1Cl)N1CCC(OCc2ccc(F)c(F)c2)CC1 (stereo not drawn) [Compound 6, 2-chloro-N-(2-{4-[(3,4-difluorophenyl)methoxy]piperidin-1-yl}-2-(4-methyl-1,3-thiazol-5-yl)ethyl)-6-fluorobenzamide] | 1160 |  | 

The next lines start with the values.

Row | IC50 [1, 3] [nM] | IC50 [1, 4] [nM] | IC50 [2] [nM] | Structure (SMILES)
15 | 201 | 201 | 57.9 | Cc1ncsc1C(CNC(=O)c1cccc2ncccc12)N1CCC(Oc2ccc(F)c(F)c2)CC1 (stereo not drawn) [Compound 24, N-{2-[4-(3,4-difluorophenoxy)piperidin-1-yl]-2-(4-methyl-1,3-thiazol-5-yl)ethyl}quinoline-5-carboxamide]
16 | 371 |  | 42.1 | Cc1ncsc1C(CNC(=O)c1cccc2ncccc12)N1CCC(OCc2ccc(F)cc2)CC1 (stereo not drawn) [Compound 13, N-(2-{4-[(4-fluorophenyl)methoxy]piperidin-1-yl}-2-(4-methyl-1,3-thiazol-5-yl)ethyl)quinoline-5-carboxamide]
17 | 374 |  | 36.9 | Cc1ncsc1C(CNC(=O)c1cccc2ncccc12)N1CCC(OCc2ccc(F)c(F)c2)CC1 (stereo not drawn) [Compound 18, N-(2-{4-[(3,4-difluorophenyl)methoxy]piperidin-1-yl}-2-(4-methyl-1,3-thiazol-5-yl)ethyl)quinoline-5-carboxamide]
18 | 762 |  |  | Cc1ncsc1C(CNC(=O)c1cccc2ncccc12)N1CCC(OCc2ccccc2F)CC1 (stereo not drawn) [Compound 16, N-(2-{4-[(2-fluorophenyl)methoxy]piperidin-1-yl}-2-(4-methyl-1,3-thiazol-5-yl)ethyl)quinoline-5-carboxamide]
19 | 808 |  |  | Cc1ncsc1C(CNC(=O)c1cccc2ncccc12)N1CCC(Oc2ccc(Cl)cc2)CC1 (stereo not drawn) [Compound 20, N-{2-[4-(4-chlorophenoxy)piperidin-1-yl]-2-(4-methyl-1,3-thiazol-5-yl)ethyl}quinoline-5-carboxamide]
20 | 432 |  | 32.9 | Cc1ncsc1C(CNC(=O)c1cccc2ncccc12)N1CCC(OCc2cc(F)cc(F)c2)CC1 (stereo not drawn) [Compound 17, N-(2-{4-[(3,5-difluorophenyl)methoxy]piperidin-1-yl}-2-(4-methyl-1,3-thiazol-5-yl)ethyl)quinoline-5-carboxamide]
21 | 323 |  |  | O=C(NCC(c1scnc1C(F)F)N1CCC(Oc2ccc(Cl)cc2)CC1)c1cccc2ncccc12 (stereo not drawn) [Compound 35, N-{2-[4-(4-chlorophenoxy)piperidin-1-yl]-2-[4-(difluoromethyl)-1,3-thiazol-5-yl]ethyl}quinoline-5-carboxamide]
22 | 295 |  |  | O=C(NCC(c1scnc1C(F)F)N1CCC(Oc2cccc(F)c2)CC1)c1cccc2ncccc12 (stereo not drawn) [Compound 36, N-{2-[4-(difluoromethyl)-1,3-thiazol-5-yl]-2-[4-(3-fluorophenoxy)piperidin-1-yl]ethyl}quinoline-5-carboxamide]
23 | 631 |  |  | Cc1ncsc1C(CNC(=O)c1cccc2ncccc12)N1CCC(Oc2cc(F)cc(F)c2)CC1 (stereo not drawn) [Compound 23, N-{2-[4-(3,5-difluorophenoxy)piperidin-1-yl]-2-(4-methyl-1,3-thiazol-5-yl)ethyl}quinoline-5-carboxamide]
24 | 216 |  |  | O=C(NCC(c1scnc1C(F)F)N1CCC(Oc2cc(F)cc(F)c2)CC1)c1cccc2ncccc12 (stereo not drawn) [Compound 38, N-{2-[4-(difluoromethyl)-1,3-thiazol-5-yl]-2-[4-(3,5-difluorophenoxy)piperidin-1-yl]ethyl}quinoline-5-carboxamide]
25 | 1120 |  |  | Cc1ncsc1C(CNC(=O)c1cccc2ncccc12)N1CCC(OCc2ccc(Cl)cc2)CC1 (stereo not drawn) [Compound 14, N-(2-{4-[(4-chlorophenyl)methoxy]piperidin-1-yl}-2-(4-methyl-1,3-thiazol-5-yl)ethyl)quinoline-5-carboxamide]
